Measured values from PMC2755957 (The Journal of Biological Chemistry, 2009).
Substitutions are numbered along the chain they refer to.

Key:
[1] = target: T1, mouse Δ1–24-L-PGDS (lipocalin type prostaglandin D synthase) (Mus musculus, UniProt O09114, S45A/S81A/T67A); test: surface plasmon resonance; type: binding
T1 sequence (O09114 25-189 S45A/T67A/S81A): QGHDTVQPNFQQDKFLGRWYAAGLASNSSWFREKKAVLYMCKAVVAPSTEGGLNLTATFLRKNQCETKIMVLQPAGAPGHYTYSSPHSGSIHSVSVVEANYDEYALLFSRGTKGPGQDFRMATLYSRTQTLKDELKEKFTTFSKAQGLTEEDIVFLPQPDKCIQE

[2] = target: T2, mouse Δ1–24-L-PGDS (lipocalin type prostaglandin D synthase) (Mus musculus, UniProt O09114, H111A/W54A); test: surface plasmon resonance; type: binding
T2 sequence (O09114 25-189 W54A/H111A): T1 sequence (O09114 25-189 S45A/T67A/S81A) with A21S, W30A, A43T, A57S, H87A

[3] = target: T3, mouse Δ1–24-L-PGDS (lipocalin type prostaglandin D synthase) (Mus musculus, UniProt O09114, W54A); test: surface plasmon resonance; type: binding
T3 sequence (O09114 25-189 W54A): T1 sequence (O09114 25-189 S45A/T67A/S81A) with A21S, W30A, A43T, A57S

[4] = target: T4, mouse Δ1–24-L-PGDS (lipocalin type prostaglandin D synthase) (Mus musculus, UniProt O09114, T67A); test: surface plasmon resonance; type: binding
T4 sequence (O09114 25-189 T67A): T1 sequence (O09114 25-189 S45A/T67A/S81A) with A21S, A57S

[5] = target: T5, mouse Δ1–24-L-PGDS (lipocalin type prostaglandin D synthase) (Mus musculus, UniProt O09114); test: surface plasmon resonance; type: binding
T5 sequence (O09114 25-189): T1 sequence (O09114 25-189 S45A/T67A/S81A) with A21S, A43T, A57S

[6] = target: T6, mouse Δ1–24-L-PGDS (lipocalin type prostaglandin D synthase) (Mus musculus, UniProt O09114, C65A); test: surface plasmon resonance; type: binding
T6 sequence (O09114 25-189 C65A): T1 sequence (O09114 25-189 S45A/T67A/S81A) with A21S, C41A, A43T, A57S

[7] = target: T7, mouse Δ1–24-L-PGDS (lipocalin type prostaglandin D synthase) (Mus musculus, UniProt O09114, H111A); test: surface plasmon resonance; type: binding
T7 sequence (O09114 25-189 H111A): T1 sequence (O09114 25-189 S45A/T67A/S81A) with A21S, A43T, A57S, H87A

[8] = target: T8, mouse Δ1–24-L-PGDS (lipocalin type prostaglandin D synthase) (Mus musculus, UniProt O09114, S81A); test: surface plasmon resonance; type: binding
T8 sequence (O09114 25-189 S81A): T1 sequence (O09114 25-189 S45A/T67A/S81A) with A21S, A43T

Δ^1–24-C65A + H111A = target: T9, Δ^1–24-C65A + H111A (Mus musculus, UniProt O09114, C65A/H111A); test: biochemical
T9 sequence (O09114 1-189 C65A/H111A): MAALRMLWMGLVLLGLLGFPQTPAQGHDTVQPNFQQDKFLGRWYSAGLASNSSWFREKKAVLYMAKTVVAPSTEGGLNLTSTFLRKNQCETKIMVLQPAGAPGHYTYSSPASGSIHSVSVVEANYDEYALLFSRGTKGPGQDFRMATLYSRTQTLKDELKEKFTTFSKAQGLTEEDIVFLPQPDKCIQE

[9] = target: T10, Δ^1–24-L-PGDS + S45A/T67A (Mus musculus, UniProt O09114, S45A/T67A); test: biochemical
T10 sequence (O09114 1-189 S45A/T67A): T9 sequence (O09114 1-189 C65A/H111A) with S45A, A65C, T67A, A111H

[10] = target: T11, Δ^1–24-L-PGDS + T67A/S81A (Mus musculus, UniProt O09114, S81A/T67A); test: biochemical
T11 sequence (O09114 1-189 T67A/S81A): T9 sequence (O09114 1-189 C65A/H111A) with A65C, T67A, S81A, A111H

Kd [1] [µM]	Kd [2] [µM]	Kd [3] [µM]	Kd [4] [µM]	Kd [5] [µM]	Kd [6] [µM]	Kd [7] [µM]	Kd [8] [µM]	Kd (Δ^1–24-C65A + H111A) [µM]	Kd [9] [µM]	Kd [10] [µM]	SMILES
12.9 ± 2.4	20.6 ± 1.4	20.3 ± 1.9	12.3 ± 3	17.5 ± 1.2	20.2 ± 2.5	20.6 ± 2.3	14.6 ± 2.4	38.1 ± 2.4	7.2 ± 1.6	13.5 ± 2.3	CCCCC[C@H](O)/C=C/[C@H]1[C@@H]2CO[C@@H](C2)[C@@H]1C/C=C\CCCC(=O)O [U-44069]
22 ± 2	48.5 ± 4.4	44 ± 3.9	26.9 ± 5.3	22.8 ± 1.6	22.1 ± 1.5	20.3 ± 1.3	17 ± 1.7	37.2 ± 3.5	19.1 ± 2.5	19.6 ± 2.3	CCCCC[C@H](O)/C=C/[C@@H]1[C@@H](C/C=C\CCCC(=O)O)[C@H]2CO[C@@H]1C2 [U-46619]
